Consider one compound from article PMC11640089, “JRM-28, a Novel HDAC2 Inhibitor, Upregulates Plasticity-Associated Proteins in Hippocampal Neurons and Enhances Morphological Plasticity via Activation of CREB: Implications for Alzheimer’s Disease” (Cells, 2024).

The subject of test [1] is SHSY5Y human neuronal cells. The experiment in a line: MAP2 immunofluorescence/immunoblot, dendritic morphogenesis in SHSY5Y neurons. It counts as cell-based. The protocol:
(§1) Primary neuronal cell culture was performed based on a protocol approved by the Institutional Animal Care and Use Committee (IACUC) of the University of Wisconsin-Milwaukee, Milwaukee, WI-53211, and by the guidelines set by the National Institute of Health. Embryonic day 18 (E18) fetuses were harvested, and hippocampal tissue was dissected from brains and then processed for single cell culture in poly-D-lysine-coated plates, as discussed elsewhere. Neuronal cells were maintained with B-27^TM-plus-supplemented complete neurobasal media for 7–10 days until fully differentiated. After that, the treatment with JRM-28 was performed. SHSY5Y cells were grown, maintained, and passaged with complete DMEM media (a bottle of DMEM supplemented with 10% FBS, 2 mM L-glutamine, and 100 units/mL antibiotics); otherwise, for neuronal differentiation study, SHSY5Y was seeded with complete neurobasal medium. For making AD neurons, commercially purchased (Axol Bioscience Ltd.) A246E psen1 neural stem cells (NSCs) were maintained with KnockOut^TM DMEM/F12 media supplemented with StemPro^TM Neural Supplement, bFGF, EGF, 2 mM GlutMAX^TM supplement, and 10 mL/L antibiotic-antimycotic solution. These […] NSCs were grown in a […] cell culture flask coated with Geltrex^TM matrix until fully confluent and then detached by Accutase, centrifuged, washed, and plated in a poly-D-lysine-coated plate supplemented with complete neurobasal media for neuronal differentiation. After one week, when neurons were differentiated, JRM-28 treatment was conducted.
Immunofluorescence analysis was performed as described earlier. Briefly, cells cultured on coverslip contained in six-well plates (Lab-Tek II) were fixed with 4% paraformaldehyde for 20 min followed by two rinses in TBST. Samples were incubated in a 1:1 solution of TBST and blocking buffer containing rabbit anti-NR2A (1:250), anti-GluR1 (1:250), ant-HDAC2 (1:250), anti-CREB (1:250), and anti-MAP2 (1:250) for 2 h at 37 °C. After three washes in PBST (15 min each), slides were further incubated with FIT-C and TRIT-C-conjugated secondary antibodies. […]
Background: Immunoblotting shows a protein as a band on a membrane.

In the next test the test system is CREB. The test is described as follows: CREB family expression (PCR array, RT-PCR, immunoblot) in SHSY5Y cells. Format: cell-based, human. The protocol: Total RNA was isolated from SHSY5Y neurons using Gene JET RNA Purification Kit (Thermofisher Scientific; Cat #K0731) following the manufacturer’s protocol. RNA was converted to cDNA using the GoScript™ Reverse Transcriptase kit (Promega, Cat # A5001). Semi-quantitative RT-PCR was carried out as described earlier using an RT-PCR kit from Promega (Cat# M7502). Briefly, 1 µg of total RNA was reverse-transcribed using oligo(dT)12–18 as a primer and MMLV reverse transcriptase in a 20 µL reaction mixture. The resulting cDNA was diluted by nuclease-free H2O in a ratio of 1:2, and diluted cDNA was amplified using the following primers (Table 2).
Immunoblot analysis was carried out as described earlier. Briefly, SHSY5Y neuronal cell homogenates were electrophoresed by 4–12% Tris-Glycine gradient gel, proteins were transferred onto a 0.45 μm nitrocellulose membrane, and the protein band was visualized with Odyssey Sa infrared scanner after immunolabeling with primary antibodies followed by infrared fluorophore-tagged secondary antibody (Licor Biosciences, Lincoln, NE, USA).

The test system of test [2] is mouse primary hippocampal neurons. The experiment in a line: NMDA/AMPA-sensitive calcium influx assay in mouse primary hippocampal neurons. It counts as cell-based. How it is done: Mouse primary hippocampal neurons and AD neurons were loaded with Fluo4-fluorescence conjugated calcium dye (Invitrogen Molecular Probes, Cat #F10471) and incubated at 37 °C for 60 min, as described before. Briefly, fluorescence excitation and emission spectra were recorded in a Perkin–Elmer Victor X2 Fluorimetric Spectrometer (Versiti Blood Center, Wauwatosa, WI, USA) in the presence of 50 μM NMDA and AMPA solutions. The recording was performed with 100 repeats at 0.1 ms intervals. The oscillogram was generated with the help of Parkin Elmer 2030 software that was connected to the Victor X2 calcium recorder unit. The real-time calcium noise graph was generated as a kinetic chart plotted on a linear scale.

For the next test, the system named is iPSC-derived AD neurons. The test is described as follows: Dual immunofluorescence in iPSC-derived AD neurons (A246E psen1). Format: cell-based, human. How it is done: as §1
Immunofluorescence analysis was performed as described earlier. Briefly, cells cultured on coverslip contained in six-well plates (Lab-Tek II) were fixed with 4% paraformaldehyde for 20 min followed by two rinses in TBST. Samples were incubated in a 1:1 solution of TBST and blocking buffer containing rabbit anti-NR2A (1:250), anti-GluR1 (1:250), ant-HDAC2 (1:250), anti-CREB (1:250), and anti-MAP2 (1:250) for 2 h at 37 °C. After three washes in PBST (15 min each), slides were further incubated with FIT-C and TRIT-C-conjugated secondary antibodies. For negative controls, a set of culture slides was incubated under similar conditions with secondary antibodies and without the primary antibodies (Table 3). The samples were mounted and observed under an Accuscope fluorescent microscope. The images were captured and merged in CaptaVision^TM imaging software.

A further test addresses HDAC2 (Homo sapiens, UniProt Q92769). The test is described as follows: Fluorimetric HDAC inhibition assay, HDAC2. It counts as biochemical. The arrangement: purchased BPS Bioscience 50034 (HDAC Fluorogenic Assay Kit; enzyme supplied with kit). To be noted: reduced with DTT. The protocol: The inhibition of HDAC1, 2, 3, and 6 by JRM-28 was fluorometrically measured using the HDAC Fluorogenic Assay Kit (Catalog# 50034) by BPS bioscience. Purified recombinant human HDAC1 (Cat# 50051), HDAC3 (Cat# 50003), and HDAC6 (Cat# 50056) were also obtained from BPS Bioscience. The enzyme inhibition assay was performed according to the manufacturer’s protocol. […] Purified recombinant HDAC2 (supplied with the fluorogenic kit) was diluted to 6 ng/µL (5 µL/well with the supplied HDAC assay buffer). HDAC 1, 3, and 6 were also diluted to the optimized concentration (5 µL/well) with the HDAC assay buffer. The activity of JRM-28 was measured along with DTT control and DMSO as blank. After adding 5 µL of the diluted HDAC enzymes in designated wells, the 96-well plate (supplied with the kit) was incubated at 37 °C. Then, the reaction was initiated by adding 5 µL of diluted HDAC substrate to each well, followed by another incubation at 37 °C for 30 min. Next, 50 µL of the developer reagent was added to each well and incubated at room temperature for another 15 min. Finally, fluorescence was measured by a microplate absorbance spectrophotometer (PerkinElmer Enspire 2300 Multilabel Multimode Microplate Reader) with an excitation at λ = 485 nm and detection at λ = 528 nm.

pIC50: −log10 of the molar value. “And” between values parts separate entries of the source, which are not always exact repeats. Equal entries are not always repeated.

HDAC2, sequence (Q92769 whole entry): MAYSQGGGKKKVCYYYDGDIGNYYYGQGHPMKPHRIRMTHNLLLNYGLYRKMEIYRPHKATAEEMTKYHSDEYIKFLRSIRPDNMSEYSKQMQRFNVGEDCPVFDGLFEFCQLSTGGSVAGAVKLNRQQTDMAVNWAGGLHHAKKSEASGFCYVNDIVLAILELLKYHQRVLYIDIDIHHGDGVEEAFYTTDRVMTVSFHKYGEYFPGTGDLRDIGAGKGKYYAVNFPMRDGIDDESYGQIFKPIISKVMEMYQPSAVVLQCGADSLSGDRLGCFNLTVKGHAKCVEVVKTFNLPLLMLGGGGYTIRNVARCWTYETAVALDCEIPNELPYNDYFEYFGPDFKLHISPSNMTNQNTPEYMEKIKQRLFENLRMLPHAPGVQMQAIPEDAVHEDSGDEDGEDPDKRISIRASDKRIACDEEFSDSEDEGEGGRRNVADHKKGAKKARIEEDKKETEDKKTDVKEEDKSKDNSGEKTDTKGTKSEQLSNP

A word on the pIC50: it is −log10 of the IC50, conventionally taken in molar units. Read a low pIC50 as a large IC50. `CN(C(=O)CC(O)/C=C/CCSS(=O)(=O)CC/C=C/C(O)CC(=O)N(C)c1ccccc1)c1ccccc1` (stereo not drawn) [JRM-28, S-((E)-5-hydroxy-7-(methyl(phenyl)amino)-7-oxohept-3-en-1-yl) (E)-5-hydroxy-7-(methyl(phenyl)amino)-7-oxohept-3-ene-1-sulfonothioate]: the “dendritic length / dendritic morphogenesis” value in test [1] (5 µM versus control, n = 200 per group) is recorded as “augmented the dendritic morphogenesis”. In addition, the “dendritic pruning (MAP2-ir appendages)” value in test [1] (5 µM, 48 h (legend: 24 h)) is “significantly stimulated dendritic pruning”. For the same compound, the “MAP2 expression (immunoblot)” value in test [1] (5 and 10 µM) is recorded as “upregulated the expressions of MAP2”. In the test on CREB (5 µM), the “CREB and CREB-dependent gene expression (RT2 Profiler PCR Array)” value was “strongly upregulated the expressions of the creb gene and 37 other CREB-dependent genes”; the “creb mRNA expression (semi-quantitative RT-PCR)” value was “upregulated the mRNA expression of creb”. Also, the “crem mRNA expression (semi-quantitative RT-PCR)” value in the test with CREB (2 and 5 µM) was “failed to upregulate the expression of crem”. Besides, in the test with CREB (increasing concentrations), the “CREB protein expression (immunoblot)” value is on record as “upregulated the expression of CREB protein”. Besides, in test [2] (5 µM, 24 h), the AMPA-sensitive calcium influx result is on record as “strongly upregulated” and the NMDA-sensitive calcium influx entry is reported as “strongly upregulated”. In test [2] (2, 5, and 10 µM tested), the “optimum dose for the calcium influx” value is 5 µM. Besides, the “NMDA- and AMPA-driven calcium influx after creb siRNA” value in test [2] (creb knocked down by creb siRNA) is “significantly abrogate”. Also, in the test with iPSC-derived AD neurons (5 µM), the “expressions of ionotropic glutamate receptors (NR2A, GluR1)” value was “augmented the expressions of ionotropic glutamate receptors” and the “length of MAP2-ir basal dendrites” value was “increase the length of MAP2-ir basal dendrites”. Further, in the test on iPSC-derived AD neurons (5 μM, 24 h (legend: 48 h)), the “CREB expression (dual IF)” value is “strong upregulation of CREB” and the “HDAC2 expression (dual IF)” value was “significant downregulation of HDAC2”. Moreover, the pIC50 against HDAC2 was ~6.97 and 6.97. For the same compound, the “Hill slope HDAC2 (fluorimetric)” value at HDAC2 (listed as JRM-28 (JRM-28a+28b)) is −1.580.
